Legend:
[1] = tested on: pigweed; experiment: Test B pre-/postemergence herbicide test; format: in vivo, Amaranthus retroflexus; settings: for Pigweed plant response rating: postemergence, visual rating
Procedure, shortened: (§1)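 Pre: seeds sown, then sprayed. Post: 1–4-leaf plants (2–18 cm) sprayed at the same time. Paddy: flooded, treated at 2-leaf stage. Formulation: non-phytotoxic solvent with surfactant. Greenhouse 13–15 days; visual 0–100 score relative to controls.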

[2] = tested on: barnyardgrass; experiment: Test B pre-/postemergence herbicide test; format: in vivo, Echinochloa crus-galli
Procedure, shortened: (§2)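 Response was scored visually 13 to 15 days after treatment against untreated greenhouse controls, 0 meaning no effect and 100 complete control. Formulations (solvent mixture plus surfactant) went onto soil after planting, onto foliage of 1- to 4-leaf plants, and onto 2-leaf plants in a flooded paddy set including rice and barnyardgrass.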

[3] = tested on: wheat; experiment: Test B postemergence herbicide test; format: in vivo, Triticum aestivum; design: key to Wheat plant response rating: 0 = no effect, 100 = complete control; settings: scale 0 (no effect) to 100 (complete control); for Plant response rating, Wheat: Postemergence, 500 g ai/ha, visual rating after 13 to 15 days; for Wheat plant response rating: postemergence, 125 g ai/ha, visual rating
Procedure, shortened: (§3)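 Visual ratings, 0 (no effect) to 100 (complete control), made versus controls after 13–15 d greenhouse. Paddy plants treated at 2-leaf stage; postemergence plants at 1- to 4-leaf stage, 2–18 cm tall.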

[4] = tested on: rice; experiment: Test B pre-/postemergence herbicide test; format: in vivo, Oryza sativa; settings: preemergence
Procedure, shortened: as §1

[5] = tested on: morningglory; experiment: Test A pre-/postemergence herbicide test; format: in vivo, Ipomoea spp.
Procedure, shortened: (§4)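 Visual injury scores on a 0–100 scale (100 = complete control) taken about ten days post-treatment in greenhouse against untreated controls; dash means no result. Treatments: preemergence soil spray and postemergence spray to runoff on one- to two-leaf plants 2 to 10 cm tall, surfactant-containing formulation.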

[6] = tested on: ducksalad; experiment: Test B flooded paddy test; format: in vivo, Heteranthera limosa; settings: 1000 g ai/ha, visual rating, scale 0 to 100 (0 no effect, 100 complete control), 13 to 15 days
Procedure, shortened: (§5)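 Visual control ratings, 0–100 versus untreated controls, taken after 13 to 15 days in the greenhouse. Blackgrass received a postemergence spray at the 1- to 4-leaf stage (2–18 cm); ducksalad, umbrella sedge and barnyardgrass were flooded-paddy treated at 2 leaves.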

[7] = tested on: large crabgrass; experiment: Test A pre-/postemergence herbicide test; format: in vivo, Digitaria sanguinalis
Procedure, shortened: as §4

[8] = tested on: large crabgrass; experiment: Test B pre-/postemergence herbicide test; format: in vivo, Digitaria sanguinalis
Procedure, shortened: as §1

[9] = tested on: barnyardgrass; experiment: Test B flooded paddy test; format: in vivo, Echinochloa crus-galli; settings: 1000 g ai/ha, visual rating, scale 0 to 100 (0 no effect, 100 complete control), 13 to 15 days
Procedure, shortened: as §5

[10] = tested on: velvetleaf; experiment: Test A pre-/postemergence herbicide test; format: in vivo, Abutilon theophrasti
Procedure, shortened: as §4

[11] = tested on: wild oat; experiment: Test B postemergence herbicide test; format: in vivo, Avena fatua; settings: scale 0 (no effect) to 100 (complete control); for Plant response rating, Oat, Wild: Postemergence, 500 g ai/ha, visual rating after 13 to 15 days; for Oat, Wild plant response rating: postemergence, 125 g ai/ha, visual rating
Procedure, shortened: as §3

[12] = tested on: velvetleaf; experiment: Test B pre-/postemergence herbicide test; format: in vivo, Abutilon theophrasti; settings: for Velvetleaf plant response rating: postemergence, visual rating
Procedure, shortened: as §1

[13] = tested on: blackgrass; experiment: Test B postemergence herbicide test; format: in vivo, Alopecurus myosuroides; settings: scale 0 (no effect) to 100 (complete control); for Plant response rating, Blackgrass: Postemergence, 500 g ai/ha, visual rating after 13 to 15 days; for Blackgrass plant response rating: postemergence, 125 g ai/ha, visual rating
Procedure, shortened: as §5

[14] = tested on: corn; experiment: Test B pre-/postemergence herbicide test; format: in vivo, Zea mays
Procedure, shortened: as §1

[15] = tested on: rice; experiment: Test B flooded paddy test; format: in vivo, Oryza sativa; settings: 1000 g ai/ha, visual rating, scale 0 to 100 (0 no effect, 100 complete control), 13 to 15 days
Procedure, shortened: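 Plants grow to 1- to 4-leaf stage (2–18 cm) for postemergence spraying, or to 2-leaf stage for the paddy test. Formulated compound is applied. Greenhouse holding lasts 13–15 days. Response is scored visually relative to controls, 0 no effect to 100 complete control; a dash means no result.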

[16] = tested on: lambsquarters; experiment: Test B pre-/postemergence herbicide test; format: in vivo, Chenopodium album; settings: for Lambsquarters plant response rating: postemergence, visual rating
Procedure, shortened: as §1

[17] = tested on: small flower umbrella sedge; experiment: Test B flooded paddy test; format: in vivo, Cyperus difformis; settings: 1000 g ai/ha, visual rating, scale 0 to 100 (0 no effect, 100 complete control), 13 to 15 days
Procedure, shortened: as §5

[18] = tested on: barnyardgrass; experiment: Test A pre-/postemergence herbicide test; format: in vivo, Echinochloa crus-galli
Procedure, shortened: as §4

[19] = tested on: giant foxtail; experiment: Test A pre-/postemergence herbicide test; format: in vivo, Setaria faberi
Procedure, shortened: as §4

[20] = tested on: cocklebur; experiment: Test B pre-/postemergence herbicide test; format: in vivo, Xanthium strumarium
Procedure, shortened: as §2

[21] = tested on: morningglory; experiment: Test B pre-/postemergence herbicide test; format: in vivo, Ipomoea coccinea; settings: for Morningglory plant response rating: postemergence, visual rating
Procedure, shortened: as §2

[22] = tested on: redroot pigweed; experiment: Test A pre-/postemergence herbicide test; format: in vivo, Amaranthus retroflexus
Procedure, shortened: as §4

[23] = tested on: Surinam grass; experiment: Test B pre-/postemergence herbicide test; format: in vivo, Urochloa decumbens; settings: for Surinam Grass plant response rating: postemergence, visual rating
Procedure, shortened: as §1

[24] = tested on: giant foxtail; experiment: Test B pre-/postemergence herbicide test; format: in vivo, Setaria faberi
Procedure, shortened: as §1

[25] = Postemergence, 500 g ai/ha, visual rating after 13 to 15 days, scale 0 (no effect) to 100 (complete control)
[26] = 125 g ai/ha, scale 0 (no effect) to 100 (complete control)
[27] = preemergence, 125 g ai/ha, 0 to 100 scale, 0 is no effect, 100 is complete control
[28] = Preemergence, 500 g ai/ha, scale 0 to 100
[29] = postemergence, 125 g ai/ha, visual rating, scale 0 (no effect) to 100 (complete control)
[30] = 125 g ai/ha, 0 to 100 scale, 0 is no effect, 100 is complete control
[31] = Postemergence, 500 g ai/ha, 0 to 100 scale, 0 no effect, 100 complete control
[32] = Postemergence, 2000 g ai/ha, 0 to 100 scale, 0 no effect, 100 complete control
[33] = Preemergence, 500 g ai/ha, visual rating, 0 to 100 scale (0 no effect, 100 complete control)
[34] = Preemergence, 2000 g ai/ha, 0 to 100 scale, 0 no effect, 100 complete control
[35] = Preemergence, 2000 g ai/ha, visual rating, 0 to 100 scale (0 no effect, 100 complete control)
[36] = 500 g ai/ha, visual rating 0-100, 0 no effect, 100 complete control, preemergence

CCOC(=O)c1cc(NC(=O)c2cc(C(C)(C)C)nn2CC)ccc1F [Compound 89]
10: Barnyardgrass plant response rating [2, 29] | Morningglory plant response rating [5, 34] | Crabgrass, Large plant response rating [8, 29] | Barnyardgrass plant response rating [9] | Velvetleaf plant response rating [10, 35] | Plant response rating, Blackgrass [13] | Corn plant response rating [14, 29] | Rice plant response rating [15] | Pigweed plant response rating [22, 34] | Surinam Grass plant response rating [23, 26]
50: Plant response rating, Velvetleaf [12, 25] | Plant response rating, Morningglory [21, 25]
20: Pigweed plant response rating [1, 26] | Plant response rating, Barnyardgrass [2, 25] | Plant response rating, Wheat [3] | Wheat plant response rating [3] | Morningglory plant response rating [5, 31] | Crabgrass, Large plant response rating [7, 31] | Plant response rating, Crabgrass, Large [8, 25] | Velvetleaf plant response rating [10, 31] | Plant response rating, Velvetleaf [10, 32] | Oat, Wild plant response rating [11] | Plant response rating, Corn [14, 25] | Barnyardgrass plant response rating [18, 31] | Plant response rating, Barnyardgrass [18, 32] | Foxtail, Giant plant response rating [19, 31] | Plant response rating, Foxtail, Giant [19, 32] | Morningglory plant response rating [21, 26] | Pigweed plant response rating [22, 31] | Plant response rating, Surinam Grass [23, 25] | Plant response rating, Foxtail, Giant [24, 25] | Foxtail, Giant plant response rating [24, 29]
60: Plant response rating, Lambsquarters [16, 25] | Sedge, Umbrella plant response rating [17]
90: Plant response rating, Cocklebur [20, 25]
70: Cocklebur plant response rating [20, 29]
0: Plant response rating, Pigweed [1, 27] | Barnyardgrass plant response rating [2, 28] | Plant response rating, Barnyardgrass [2, 27] | Plant response rating, Rice [4, 30] | Morningglory plant response rating [5, 33] | Ducksalad plant response rating [6] | Crabgrass, Large plant response rating [7, 33] | Crabgrass, Large plant response rating [7, 34] | Plant response rating, Crabgrass, Large [8, 27] | Velvetleaf plant response rating [10, 33] | Plant response rating, Velvetleaf [12, 27] | Blackgrass plant response rating [13] | Corn plant response rating [14, 28] | Plant response rating, Corn [14, 27] | Plant response rating, Lambsquarters [16, 27] | Barnyardgrass plant response rating [18, 33] | Barnyardgrass plant response rating [18, 34] | Foxtail, Giant plant response rating [19, 33] | Foxtail, Giant plant response rating [19, 34] | Cocklebur plant response rating [20, 28] | Plant response rating, Cocklebur [20, 27] | Plant response rating, Morningglory [21, 27] | Pigweed plant response rating [22, 33] | Plant response rating, Surinam Grass [23, 27] | Foxtail, Giant plant response rating [24, 28] | Plant response rating, Foxtail, Giant [24, 27]
25: Plant response rating, Crabgrass, Large [7, 32]
15: Plant response rating, Morningglory [5, 32]
80: Crabgrass, Large plant response rating [8, 28]
30: Plant response rating, Oat, Wild [11] | Velvetleaf plant response rating [12, 26] | Lambsquarters plant response rating [16, 26] | Plant response rating, Pigweed [22, 32]
40: Plant response rating, Pigweed [1, 25]

CCn1nc(C(C)(C)C)cc1C(=O)Nc1cccc(C(=O)OCCF)c1C [Compound 91]
15: Barnyardgrass plant response rating [18, 34]
20: Plant response rating, Crabgrass, Large [7, 32] | Velvetleaf plant response rating [10, 35] | Lambsquarters plant response rating [16, 26] | Plant response rating, Pigweed [22, 32]
60: Sedge, Umbrella plant response rating [17]
0: Plant response rating, Pigweed [1, 36] | Plant response rating, Pigweed [1, 27] | Plant response rating, Barnyardgrass [2, 25] | Barnyardgrass plant response rating [2, 29] | Plant response rating, Barnyardgrass [2, 27] | Wheat plant response rating [3] | Plant response rating, Rice [4, 30] | Morningglory plant response rating [5, 31] | Plant response rating, Morningglory [5, 32] | Morningglory plant response rating [5, 33] | Crabgrass, Large plant response rating [7, 33] | Crabgrass, Large plant response rating [8, 29] | Barnyardgrass plant response rating [9] | Oat, Wild plant response rating [11] | Velvetleaf plant response rating [12, 26] | Plant response rating, Blackgrass [13] | Blackgrass plant response rating [13] | Plant response rating, Corn [14, 27] | Plant response rating, Lambsquarters [16, 27] | Barnyardgrass plant response rating [18, 31] | Plant response rating, Barnyardgrass [18, 32] | Barnyardgrass plant response rating [18, 33] | Foxtail, Giant plant response rating [19, 31] | Plant response rating, Foxtail, Giant [19, 32] | Foxtail, Giant plant response rating [19, 33] | Cocklebur plant response rating [20, 29] | Plant response rating, Morningglory [21, 25] | Morningglory plant response rating [21, 26] | Plant response rating, Morningglory [21, 27] | Pigweed plant response rating [22, 31] | Pigweed plant response rating [22, 33] | Plant response rating, Foxtail, Giant [24, 25] | Foxtail, Giant plant response rating [24, 29]
55: Pigweed plant response rating [22, 34]
5: Velvetleaf plant response rating [10, 31] | Velvetleaf plant response rating [10, 33]
35: Crabgrass, Large plant response rating [7, 34]
10: Plant response rating, Pigweed [1, 25] | Pigweed plant response rating [1, 26] | Plant response rating, Barnyardgrass [2, 36] | Plant response rating, Wheat [3] | Plant response rating, Rice ([4]; 500 g ai/ha, visual rating 0-100, 0 no effect, 100 complete control) | Morningglory plant response rating [5, 34] | Crabgrass, Large plant response rating [7, 31] | Plant response rating, Crabgrass, Large [8, 25] | Plant response rating, Velvetleaf [10, 32] | Plant response rating, Oat, Wild [11] | Plant response rating, Velvetleaf [12, 25] | Plant response rating, Corn [14, 36] | Plant response rating, Corn [14, 25] | Corn plant response rating [14, 29] | Rice plant response rating [15] | Plant response rating, Cocklebur [20, 25] | Plant response rating, Morningglory [21, 36] | Plant response rating, Surinam Grass [23, 25] | Surinam Grass plant response rating [23, 26] | Plant response rating, Foxtail, Giant [24, 36] | Plant response rating, Foxtail, Giant [24, 27]
30: Ducksalad plant response rating [6] | Plant response rating, Lambsquarters [16, 36] | Plant response rating, Lambsquarters [16, 25] | Foxtail, Giant plant response rating [19, 34]

Reference: US20060069132A1, “Azolecarboxamide herbicides” (priority 2004, published 2006)
